Data from PMC3539403, “Molecular Characterization of Lipopolysaccharide Binding to Human α-1-Acid Glycoprotein” (Journal of Lipids, 2012).
“Also recorded” adds a separate entry of the source. Where two headings read alike, the source gives them in different places.

Tests used:
human AGP [1] = experiment: SPR assay of AGP binding to lipid A/Kdo2-lipid A in DMPC hybrid SUV bilayer (L1 chip); settings: 10% (mol/mol) lipid in DMPC bilayer; Kdo2-lipid A response at AGP concentrations higher than 7 μM
Description: In the case of lipid A and Kdo2-lipid A binding, a L1 sensor chip was used (GE Health Care, Melbourne Australia). Small unilamellar vesicles (SUVs) were prepared in PBS by sonication and extrusion. Lipids (DMPC, lipid A, and Kdo2-lipid A) were dissolved in ethanol-free chloroform in 25 mL round-bottom flasks. 10% (mol/mol) of lipid A or Kdo2-lipid A was added into DMPC solution to make 10% lipid A/Kdo2-lipid A-DMPC mixtures, which were then deposited as a thin film by removal of the solvent (chloroform) under reduced pressure on a rotary evaporator and dried under high vacuum for at least 2 hours. PBS was then added into each flask to give a 1 mM suspension, which was sonicated 5 min for 5 times. […] The SUVs were then injected into the flow cells of the L1 sensor chip for 2000 sec at a low flow rate of 2 μL/min to form a bilayer membrane model on the chip surface. Then, a series of AGP solutions was injected across the flow cells at a flow rate of 30 μL/min, having an injection phase of 180 s and a dissociation phase of 300 s. A regeneration step was added before and after every cycle using 40 mM octyl-glucoside, which cleans the chip surface for a new cycle. Pure DMPC bilayer was applied as a reference and all data used in analysis were reference-subtracted.

human AGP [2] = experiment: Fluorometric assay of FITC-E. coli O111:B4 LPS binding to AGP; settings: chlorpromazine 20 μM final concentration; FITC-LPS 5 μM, AGP 25 μM
Description: […] Fluorescence was measured using a Cary Eclipse Fluorescence spectrophotometer (Varian, Mulgrave, VIC, Australia) set at an excitation wavelength specific for the FITC fluorophore (Exλ 494 nm). Slit widths were set to 5 nm for both the excitation and emission monochromators. The emission spectrum was collected in the 500→650 nm range.

[3] = LPS binding affinity of plasma binding proteins; settings: AGP, this study's SPR data
HEK293 cells = experiment: Cytotoxicity of LPS to HEK293 cells (Alamar Blue cell viability), with or without AGP; assay type: cell-based; settings: LPS 100 μg/mL, AGP 0-1 mg/mL
Description: HEK293 cell line was purchased from American Type Culture Collection (ATCC). The cells were cultured in DMEM (Invitrogen, Australia) containing 10% fetal bovine serum at 37°C, 5% CO2. Serum-free media were used in cytotoxicity assays. Cytotoxicity of LPS to HEK293 cells was determined using Alamar Blue cell viability reagent (Invitrogen, Australia). In brief, HEK293 cells were seeded as 2 × 10^4 cells per well in a clear 96-well plate and incubated for 24 hr at 37°C, 5% CO2. Then the media were replaced with serum-free media, which contained AGP and LPS (100 μg/mL). After a 24 hr incubation, 10 μL of Alamar Blue reagent were added per well and incubated at 37°C for 1 hr. Then the fluorescence intensity was read using Polar star Omega with excitation/emission wavelengths of 560/590.

K. pneumoniae = system: K. pneumoniae; set-up: method as in PMID 10809735; settings: intraperitoneal, 10 mg, 2 h prior to lethal challenge of K. pneumoniae; cited from earlier work
[4] = set-up: method as in PMID 12887306, PMID 11739189; settings: cited from earlier work
[5] = system: meningococcal endotoxemia mouse model; set-up: method as in PMID 9179623; settings: intraperitoneal, 8 mg, 2 h prior to LPS challenge; cited from earlier work

CCCCCCCCCCCCCC(=O)O[C@H](CCCCCCCCCCC)CC(=O)O[C@@H]1[C@@H](NC(=O)C[C@@H](CCCCCCCCCCC)OC(=O)CCCCCCCCCCC)[C@H](OC[C@H]2O[C@H](OP(=O)(O)O)[C@H](NC(=O)C[C@H](O)CCCCCCCCCCC)[C@@H](OC(=O)C[C@H](O)CCCCCCCCCCC)[C@@H]2O)O[C@H](CO[C@]2(C(=O)O)C[C@@H](O[C@]3(C(=O)O)C[C@@H](O)[C@@H](O)[C@@H]([C@H](O)CO)O3)[C@@H](O)[C@@H]([C@H](O)CO)O2)[C@H]1OP(=O)(O)O [Kdo2-lipid A]
specific AGP binding to lipid in hybrid SUVs (human AGP [1]): dose-dependent response; also recorded: very weak

CN(C)CCCN1c2ccccc2Sc2ccc(Cl)cc21 [chlorpromazine]
change in fluorescence emission of the FITC-LPS:AGP complex (human AGP [2]): decrease in fluorescence emission

AGP: human α-1-acid glycoprotein from plasma, F1:S:A variants 40:30:30
LPS binding affinity [3]: high micromolar
effect of AGP on the cytotoxic effect of LPS (HEK293 cells): ameliorated in a concentration-dependent manner
survival of mice (K. pneumoniae): increased the survival of mice

diphosphoryl lipid A
specific AGP binding to lipid in hybrid SUVs (human AGP [1]): no specific AGP binding detected

B1: LBP: lipopolysaccharide-binding protein, LPS-specific plasma binding protein (protein, UniProt P18428 26-481, looked up)
Lipopolysaccharide-binding …: ANPGLVARITDKGLQYAAQEGLLALQSELLRITLPDFTGDLRIPHVGRGRYEFHSLNIHSCELLHSALRPVPGQGLSLSISDSSIRVQGRWKVRKSFFKLQGSFDVSVKGISISVNLLLGSESSGRPTVTASSCSSDIADVEVDMSGDLGWLLNLFHNQIESKFQKVLESRICEMIQKSVSSDLQPYLQTLPVTTEIDSFADIDYSLVEAPRATAQMLEVMFKGEIFHRNHRSPVTLLAAVMSLPEEHNKMVYFAISDYVFNTASLVYHEEGYLNFSITDDMIPPDSNIRLTTKSFRPFVPRLARLYPNMNLELQGSVPSAPLLNFSPGNLSVDPYMEIDAFVLLPSSSKEPVFRLSVATNVSATLTFNTSKITGFLKPGKVKVELKESKVGLFNAELLEALLNYYILNTFYPKFNDKLAEGFPLPLLKRVQLYDLGLQIHKDFLFLGANVQYMRV
LPS binding affinity [4]: nanomolar

B2: bovine AGP: bovine α-1-acid glycoprotein (protein, UniProt Q3SZR3 19-202, looked up)
Alpha-1-acid glycoprotein: QSPECANLMTVAPITNATMDLLSGKWFYIGSAFRNPEYNKSARAIQAAFFYLEPRHAEDKLITREYQTIEDKCVYNCSFIKIYRQNGTLSKVESDREHFVDLLLSKHFRTFMLAASWNGTKNVGVSFYADKPEVTQEQKKEFLDVIKCIGIQESEIIYTDEKKDACGPLEKQHEEERKKETEAS
protection against sepsis [5]: protect against sepsis

B3: BPI: bactericidal/permeability-increasing protein (protein, UniProt P17213 32-487, looked up)
Bactericidal …: VNPGVVVRISQKGLDYASQQGTAALQKELKRIKIPDYSDSFKIKHLGKGHYSFYSMDIREFQLPSSQISMVPNVGLKFSISNANIKISGKWKAQKRFLKMSGNFDLSIEGMSISADLKLGSNPTSGKPTITCSSCSSHINSVHVHISKSKVGWLIQLFHKKIESALRNKMNSQVCEKVTNSVSSELQPYFQTLPVMTKIDSVAGINYGLVAPPATTAETLDVQMKGEFYSENHHNPPPFAPPVMEFPAAHDRMVYLGLSDYFFNTAGLVYQEAGVLKMTLRDDMIPKESKFRLTTKFFGTFLPEVAKKFPNMKIQIHVSASTPPHLSVQPTGLTFYPAVDVQAFAVLPNSSLASLFLIGMHTTGSMEVSAESNRLVGELKLDRLLLELKHSNIGPFPVELLQDIMNYIVPILVLPRVNEKLQKGFPLPTPARVQLYNVVLQPHQNFLLFGADVVYK
LPS binding affinity [4]: nanomolar
